Measurements reported in ChEMBL document CHEMBL4265964, “Discover the leading compound of 4β-S-(5-fluorobenzoxazole)-4-deoxy-4'-demethylepipodophyllotoxin with millimolar-potency toxicity by modifying the molecule structure of 4'-demethylepipodophyllotoxin” (Eur J Med Chem, 2018).
Active and inactive are the calls of the source. No cut-off for these calls is given here.

Assays:
L02 = test: Cytotoxicity against human HL7702 cells after 48 hrs by MTT assay; type: cell-based; conditions: L02, 48 h
MRC5 = test: Cytotoxicity against human MRC5 cells after 48 hrs by MTT assay; type: cell-based; conditions: MRC5, 48 h
HepG2 = test: Cytotoxicity against human HepG2 cells after 48 hrs by MTT assay; type: functional, cell-based; conditions: HepG2, 48 h
MCF7 = test: Cytotoxicity against human MCF7 cells after 48 hrs by MTT assay; type: functional, cell-based; conditions: MCF7, 48 h
HeLa = test: Cytotoxicity against human HeLa cells after 48 hrs by MTT assay; type: functional, cell-based
HMEC = test: Cytotoxicity against HMEC after 48 hrs by MTT assay; type: cell-based; conditions: Homo sapiens
[1] = Cytotoxicity against human H8 cells after 48 hrs by MTT assay; type: cell-based
A549 = test: Cytotoxicity against human A549 cells after 48 hrs by MTT assay; type: functional, cell-based; conditions: A549, 48 h
Homo sapiens [2] = organism: Homo sapiens; test: Inhibition of human topoisomerase-2 assessed as reduction in relaxation of kinetoplast DNA at 100 uM after 30 mins by ethidium bromide staining based agarose gel electrophoresis method
Homo sapiens [3] = organism: Homo sapiens; test: Inhibition of human topoisomerase-2 assessed as reduction in relaxation of kinetoplast DNA at 200 uM after 30 mins by ethidium bromide staining based agarose gel electrophoresis method
Homo sapiens [4] = organism: Homo sapiens; test: Inhibition of human topoisomerase-2 assessed as reduction in relaxation of kinetoplast DNA at 50 uM after 30 mins by ethidium bromide staining based agarose gel electrophoresis method

Compound	IC50 (L02)	IC50 (MRC5)	IC50 (HepG2)	IC50 (MCF7)	IC50 (HeLa)	IC50 (HMEC)	IC50 [1]	IC50 (A549)	inhibition (Homo sapiens [2])	inhibition (Homo sapiens [3])	inhibition (Homo sapiens [4])
COc1cc([C@@H]2c3cc4c(cc3[C@@H](c3nc5ccccc5s3)[C@H]3COC(=O)[C@H]23)OCO4)cc(OC)c1O	22.7 µM	136 µM	6.7 µM	11.5 µM	5.1 µM	28.6 µM	19.4 µM	2.6 µM	–	–	–
COc1cc([C@@H]2c3cc4c(cc3[C@@H](c3nc5c(F)c(F)c(F)c(F)c5s3)[C@H]3COC(=O)[C@H]23)OCO4)cc(OC)c1O	35.6 µM	41.4 µM	14.5 µM	5.5 µM	2.3 µM	18.2 µM	24.7 µM	4.2 µM	–	–	–
COc1cc([C@@H]2c3cc4c(cc3[C@@H](c3nc5cc(-c6ccccc6)ccc5o3)[C@H]3COC(=O)[C@H]23)OCO4)cc(OC)c1O	21.7 µM	76.3 µM	> 100 µM	> 100 µM	> 100 µM	83.4 µM	> 100 µM	> 100 µM	–	–	–
COc1cc([C@@H]2c3cc4c(cc3[C@@H](c3nc5cc(-c6ccccc6)ccc5s3)[C@H]3COC(=O)[C@H]23)OCO4)cc(OC)c1O	18.6 µM	35.6 µM	15.3 µM	> 100 µM	22.5 µM	54.1 µM	47.6 µM	5.7 µM	–	–	–
COc1cc([C@@H]2c3cc4c(cc3[C@@H](c3nc5cnc(F)cc5[nH]3)[C@H]3COC(=O)[C@H]23)OCO4)cc(OC)c1O	29.8 µM	41.3 µM	22.5 µM	16.4 µM	11.9 µM	> 100 µM	34 µM	24.5 µM	inactive	Active	inactive
COc1cc([C@@H]2c3cc4c(cc3[C@@H](C3CC(S)NN3c3ccccc3F)[C@H]3COC(=O)[C@H]23)OCO4)cc(OC)c1O (stereo not given in full)	73 µM	89.2 µM	4.5 µM	1.5 µM	3.8 µM	58.2 µM	64.2 µM	2.8 µM	–	–	–
COc1cc([C@@H]2c3cc4c(cc3[C@@H](c3nc5cc(OC(F)F)ccc5[nH]3)[C@H]3COC(=O)[C@H]23)OCO4)cc(OC)c1O	15.6 µM	60.2 µM	1.6 µM	2.4 µM	2.1 µM	51.4 µM	55.4 µM	1.3 µM	–	–	–
COc1cc([C@@H]2c3cc4c(cc3[C@@H](c3nc5cc(C(F)(F)F)ccc5o3)[C@H]3COC(=O)[C@H]23)OCO4)cc(OC)c1O	79.5 µM	73.3 µM	19.5 µM	34.5 µM	21.1 µM	72.8 µM	81 µM	6.5 µM	–	–	–
COc1cc([C@@H]2c3cc4c(cc3[C@@H](c3nc5cnccc5[nH]3)[C@H]3COC(=O)[C@H]23)OCO4)cc(OC)c1O	59.8 µM	63.4 µM	> 100 µM	> 100 µM	> 100 µM	> 100 µM	> 100 µM	> 100 µM	–	–	–
